Measured values taken from the supplement of paper PMC8149375.

Experiments:
Settings in all cases: treatment: drug alone; 5 days
CAKI-1 [1] = assay: AUC of dose-response viability curve, drug alone (arbitrary (AUC of normalised viability)); higher = less growth inhibition
Method: (§1)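 Primary HTS: 8 RCC cell lines treated with 8 doses (up to 10 uM) of each library drug alone for 5 days; viability read by CellTiter-Glo and normalised to DMSO. GI50 was fitted with XLfit (4-parameter), AUC is the area under the dose-response curve, and minimum viability is the lowest fraction of DMSO viability across doses.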

ACHN [2] = assay: as above
Method: as §1

769-P [3] = assay: as above
Method: as §1

786-O [4] = assay: as above
Method: as §1

SN12C [5] = assay: as above
Method: as §1

UO-31 [6] = assay: as above
Method: as §1

A498 [7] = assay: as above
Method: as §1

TK-10 [8] = assay: as above
Method: as §1

CAKI-1 [9] = assay: minimum viability across doses, drug alone, relative to DMSO (fraction); higher = less growth inhibition
Method: as §1

ACHN [10] = assay: as above
Method: as §1

769-P [11] = assay: as above
Method: as §1

786-O [12] = assay: as above
Method: as §1

SN12C [13] = assay: as above
Method: as §1

UO-31 [14] = assay: as above
Method: as §1

A498 [15] = assay: as above
Method: as §1

TK-10 [16] = assay: as above
Method: as §1

CAKI-1 [17] = assay: GI50, drug alone; higher = less potent
Method: as §1

ACHN [18] = assay: GI50, drug alone; higher = less potent
Method: as §1

769-P [19] = assay: GI50, drug alone; higher = less potent
Method: as §1

786-O [20] = assay: GI50, drug alone; higher = less potent
Method: as §1

SN12C [21] = assay: GI50, drug alone; higher = less potent
Method: as §1

UO-31 [22] = assay: GI50, drug alone; higher = less potent
Method: as §1

A498 [23] = assay: GI50, drug alone; higher = less potent
Method: as §1

TK-10 [24] = assay: GI50, drug alone; higher = less potent
Method: as §1

| Structure (SMILES) | AUC of dose-response viability curve (CAKI-1 [1]) | AUC of dose-response viability curve (ACHN [2]) | AUC of dose-response viability curve (769-P [3]) | AUC of dose-response viability curve (786-O [4]) | AUC of dose-response viability curve (SN12C [5]) | AUC of dose-response viability curve (UO-31 [6]) | AUC of dose-response viability curve (A498 [7]) | AUC of dose-response viability curve (TK-10 [8]) | minimum viability across doses (CAKI-1 [9]) | minimum viability across doses (ACHN [10]) | minimum viability across doses (769-P [11]) | minimum viability across doses (786-O [12]) | minimum viability across doses (SN12C [13]) | minimum viability across doses (UO-31 [14]) | minimum viability across doses (A498 [15]) | minimum viability across doses (TK-10 [16]) | GI50, drug alone (CAKI-1 [17]) | GI50, drug alone (ACHN [18]) | GI50, drug alone (769-P [19]) | GI50, drug alone (786-O [20]) | GI50, drug alone (SN12C [21]) | GI50, drug alone (UO-31 [22]) | GI50, drug alone (A498 [23]) | GI50, drug alone (TK-10 [24]) |
| --- | --- | --- | --- | --- | --- | --- | --- | --- | --- | --- | --- | --- | --- | --- | --- | --- | --- | --- | --- | --- | --- | --- | --- | --- |
| CCCS(=O)(=O)Nc1ccc(F)c(C(=O)c2c[nH]c3ncc(-c4ccc(Cl)cc4)cc23)c1F [Vemurafenib (PLX4032)] | 3.43 | 3.08 | 2.31 | 2.45 | 3.05 | 3.42 | 3.73 | 3.05 | 0.76 | 0.634 | 0.884 | 0.271 | 0.764 | 0.7 | 0.93 | 0.647 | > 10000 nM | > 10000 nM | > 10000 nM | 5390 nM | > 10000 nM | > 10000 nM | > 10000 nM | > 10000 nM |
| CCS(=O)(=O)Nc1ccc2c(c1)/C(=C(/Nc1ccc(CN3CCCCC3)cc1)c1ccccc1)C(=O)N2 [Hesperadin] | 1.85 | 1.63 | 2.53 | 1.54 | 1.86 | 3.32 | 3.72 | 2.46 | 0.0394 | 0.00749 | 0.0547 | 0.0109 | 0.00306 | 0.0115 | 0.0284 | 0.0523 | 189 nM | 111 nM | 1180 nM | 63.9 nM | 199 nM | 2490 nM | 2500 nM | 1460 nM |
| CN(C)C/C=C/C(=O)Nc1cc2c(Nc3ccc(F)c(Cl)c3)ncnc2cc1O[C@H]1CCOC1 [Afatinib (BIBW2992)] | 2.18 | 1.71 | 1.94 | 2.26 | 2.37 | 3.72 | 2.87 | 1.73 | 0.047 | 0.000546 | 0.0284 | 0.00665 | 0.0794 | 0.00799 | 0.00814 | 0.0844 | 673 nM | 162 nM | 298 nM | 1460 nM | 1340 nM | 2610 nM | 2860 nM | 157 nM |
| COc1cc(N2CCC(N3CCN(C)CC3)CC2)ccc1Nc1ncc(Cl)c(Nc2ccccc2S(=O)(=O)C(C)C)n1 [TAE684 (NVP-TAE684)] | 2.9 | 2.65 | 3.21 | 1.87 | 2.74 | 4.34 | 3.29 | 2.82 | 0.255 | 0.237 | 0.722 | 0.124 | 0.182 | 0.927 | 0.399 | 0.356 | 2330 nM | 1840 nM | > 10000 nM | < 3 nM | 2620 nM | > 10000 nM | 1430 nM | 3590 nM |
| CN[C@@H]1C[C@H]2O[C@@](C)([C@@H]1OC)n1c3ccccc3c3c4c(c5c6ccccc6n2c5c31)C(=O)NC4 [Staurosporine] | 0.143 | 0.526 | 0.299 | 0.171 | 1.06 | 0.1 | 1.56 | 0.286 | 0.00272 | 0.00377 | 0.00587 | 0.00288 | 0.00485 | 0.0116 | 0.0127 | 0.0227 | < 3 nM | 5.33 nM | < 3 nM | < 3 nM | 33.3 nM | < 3 nM | 90.9 nM | < 3 nM |
